# Legend:
# [1] = tested on: optic nerve head tissue blood flow; test: Pharmacological Test 4: optic nerve head tissue blood flow (laser speckle flowgraphy) after repeated instillation of omidenepag isopropyl to rabbits; assay type: in vivo, rabbit; conditions: for Base-Corrected Optic Nerve Head Tissue Blood Flow Change Rate (%): 0.002% (w/v) (20 μg/mL), 50 μL instilled once a day for 14 days, rabbit, average of four animals
# Procedure: In order to find a new medicinal use of omidenepag, an ester thereof, or a salt thereof, the action of increasing tissue blood flow in the optic nerve head in the case of instilling omidenepag isopropyl to rabbits was examined.
# Omidenepag isopropyl, polyoxyl 35 castor oil, glycerin, sodium citrate, sodium edentate, and benzalkonium chloride were added and dissolved into purified water to adjust the pH. Thereafter, purified water was added to adjust the total volume, thereby preparing a 0.002 w/v % omidenepag isopropyl solution (omidenepag isopropyl sample 3).
# The base D and omidenepag isopropyl sample 3 as test compound solutions, each at 50 μL, were instilled (ophthalmic solution, once a day, repeated instillation for 14 days) to examine the change in optic nerve head tissue blood flow. In addition, pigmented rabbits (strain: Dutch, sex: male, four animals per group) were used as experimental animals.
# 1) After holding the above experimental animals, one drop (about 0.03 mL) of a 0.4% tropicamide ophthalmic solution (trade name: Mydrin-M ophthalmic solution 0.4%) was instilled into the optic nerve head tissue blood flow measurement eye to fully dilate the pupil. Thereafter, laser speckle flowgraphy (LSFG-NAVI manufactured by Softcare Co., Ltd.) was used to measure the tissue blood flow in the optic nerve head of the measurement eye.
# 2) The test compound solutions were instilled at 50 μL into one eye (optic nerve head tissue blood flow measurement eye) of each of the experimental animals once a day for 14 days (the contralateral eye was untreated).
# 3) At 1 hour and 2 hours after administration of each test compound solution at day 1, day 7, and day 14 after administration of each test compound solution, the optic nerve head tissue blood flow of the optic nerve head tissue blood flow measurement eye was measured.
# (a) The ratio of the optic nerve head tissue blood flow after passage of each of the time periods of 1 hour and 2 hours after administration of each test compound solution at day 1, day 7, and day 14 after the start of administration of each test compound solution to the optic nerve head tissue blood flow immediately before administration (optic nerve head tissue blood flow change rate (%)) was calculated. [Optic Nerve Head Tissue Blood Flow Change Rate (%) After Passage of Each Time Period After Administration]=[Optic Nerve Head Tissue Blood Flow After Passage of Each Time Period After Administration]/[Optic Nerve Head Tissue Blood Flow Immediately Before Administration]×100
# (b) For each time period after administration, the difference (base-corrected optic nerve head tissue blood flow change rate (%)) was calculated between the optic nerve head tissue blood flow change rate (%) of the group administered with the base D simultaneously carried out and the optic nerve head tissue blood flow change rate (%) of the group administered with omidenepag isopropyl sample 3. [Base-Corrected Optic Nerve Head Tissue Blood Flow Change Rate (%) After Passage of Each Time Period]=[Optic Nerve Head Tissue Blood Flow Change Rate (%) After Passage of Each Time Period After Administration of Omidenepag Isopropyl Sample 3]−[Optic Nerve Head Tissue Blood Flow Change Rate (%) After Passage of Each Time Period After Administration of Base D]
# (c) The base-corrected optic nerve head tissue blood flow change rate (%) of (a) and (b) above was calculated for four experimental animals in each group, and the average thereof was defined as the value of the “base-corrected optic nerve head tissue blood flow change rate (%).”
# retinal blood vessels = test: Pharmacological Test 2: retinal vasodilatory action (retinal vascular diameter) after intravitreal administration of omidenepag isopropyl to rabbits; assay type: in vivo, rabbit; conditions: for Base-Corrected Retinal Vascular Diameter Change Rate (%) 1 Hour After Administration / Base-Corrected Retinal Vascular Diameter Change Rate (%) 2 Hours After Administration / Base-Corrected Retinal Vascular Diameter Change Rate (%) 6 Hours After Administration / Base-Corrected Retinal Vascular Diameter Change Rate (%) 24 Hours After Administration / Base-Corrected Retinal Vascular Diameter Change Rate (%) 48 Hours After Administration: 20 μL intravitreal single injection, pigmented rabbits
# Procedure: (a) The fundus images captured immediately before the administration, 1 hour, 2 hours, 6 hours, and 24 hours after the administration were used to measure, as the vascular diameters, (i) the vascular diameter of the retinal artery on the nose side, (ii) the vascular diameter of the retinal artery on the ear side, and (iii) the optic nerve head diameter (longitudinal diameter passing through the center of the optic nerve head).
# (b) The average value of (i) the vascular diameter of the retinal artery on the nose side and (ii) the vascular diameter of the retinal artery on the ear side measured from the fundus images for each time period was divided by (iii) the optic nerve head diameter to calculate the corrected retinal vascular diameter. [Corrected Retinal Vascular Diameter]=(([(i) Vascular Diameter of Retinal Artery on Nose Side]+[(ii) Vascular Diameter of Retinal Artery on Ear Side])/2)/([(iii) Optic Nerve Head Diameter])
# (c) The ratio of the corrected retinal vascular diameter after passage of each of the time periods of 1 hour, 2 hours, 6 hours, and 24 hours after administration to the corrected retinal vascular diameter immediately before administration (retinal vascular diameter change rate (%)) was calculated. [Retinal Vascular Diameter Change Rate (%) After Passage of Each Time Period After Administration]=[Corrected Retinal Vascular Diameter After Passage of Each Time Period After Administration]/[Corrected Retinal Vascular Diameter Immediately Before Administration]×100
# (d) For each time period after administration, the difference (base-corrected retinal vascular diameter change rate (%)) was calculated between the retinal vascular diameter change rate (%) of the group administered with the base simultaneously carried out and the retinal vascular diameter change rate (%) of the groups administered with samples (omidenepag samples 1 and 2, and CP-544326 samples 1 and 2). [Base-Corrected Retinal Vascular Diameter Change Rate (%) After Passage of Each Time Period]=[Retinal Vascular Diameter Change Rate (%) After Passage of Each Time Period After Administration of Samples]−[Retinal Vascular Diameter Change Rate (%) After Passage of Each Time Period After Administration of Base]
# (e) The base-corrected retinal vascular diameter change rate (%) of (a) to (d) above was calculated for three experimental animals in each group, and the average thereof was defined as the value of the “base-corrected retinal vascular diameter change rate (%).”
# In order to find anew medicinal use of omidenepag, an ester thereof, or a salt thereof, the retinal vasodilatory action in the case of administering omidenepag isopropyl to rabbits was examined.
# Omidenepag isopropyl at 3.98 mg was dissolved in dimethyl sulfoxide to a total volume of 118 μL. Of the total volume, 10 μL was added and dissolved into physiological saline, and an appropriate amount of sodium hydroxide solution was added to adjust the pH of the formulation to 6.4. Thereafter, physiological saline was further added to a total volume of 10 mL to obtain omidenepag isopropyl sample 1 (containing 0.00338% (w/v) (33.8 μg/mL) of omidenepag isopropyl). In addition, the base B was added to 0.1 mL of omidenepag isopropyl sample 1 to a total volume of 10 mL, and omidenepag isopropyl sample 2 was obtained (containing 0.0000338% (w/v) (0.338 μg/mL) of omidenepag isopropyl).
# In the same method as that in Pharmacological Test 1, the base B and omidenepag isopropyl samples 1 and 2, each at 20 μL, were administered intravitreally (injection, single time) to examine the change in retinal vascular diameter. Note that, 1 hour, 2 hours, 6 hours, 24 hours, and 48 hours after administration of each test compound solution, fundus images of the retinal vascular diameter measuring eyes were captured, and the retinal vascular diameters and the like were measured from the obtained fundus images. […]
compound,measurement,setting,value
"CC(C)OC(=O)CNc1cccc(CN(Cc2ccc(-n3cccn3)cc2)S(=O)(=O)c2cccnc2)n1 [Omidenepag Isopropyl, isopropyl (6-{[4-(pyrazol-1-yl)benzyl](pyridin-3-ylsulfonyl)aminomethyl}pyridin-2-ylamino)acetate]","blood flow increasing action, optic nerve head (in words)","[1]; 0.002 w/v % solution, 50 μL instillation once a day for 14 days, rabbits",good blood flow increasing action
same,Base-Corrected Optic Nerve Head Tissue Blood Flow Change Rate (%),"[1]; Day 1, 1 hour after administration",7.2%
same,Base-Corrected Optic Nerve Head Tissue Blood Flow Change Rate (%),"[1]; Day 1, 2 hours after administration",6.3%
same,Base-Corrected Optic Nerve Head Tissue Blood Flow Change Rate (%),"[1]; Day 7, 1 hour after administration",9.9%
same,Base-Corrected Optic Nerve Head Tissue Blood Flow Change Rate (%),"[1]; Day 7, 2 hours after administration",12.4%
same,Base-Corrected Optic Nerve Head Tissue Blood Flow Change Rate (%),"[1]; Day 14, 1 hour after administration",13.6%
same,Base-Corrected Optic Nerve Head Tissue Blood Flow Change Rate (%),"[1]; Day 14, 2 hours after administration",11.5%
same,Base-Corrected Retinal Vascular Diameter Change Rate (%) 1 Hour After Administration,retinal blood vessels; 0.0000338% (w/v) (0.338 μg/mL),25.1%
same,Base-Corrected Retinal Vascular Diameter Change Rate (%) 2 Hours After Administration,retinal blood vessels; 0.0000338% (w/v) (0.338 μg/mL),34.5%
same,Base-Corrected Retinal Vascular Diameter Change Rate (%) 6 Hours After Administration,retinal blood vessels; 0.0000338% (w/v) (0.338 μg/mL),18.4%
same,Base-Corrected Retinal Vascular Diameter Change Rate (%) 24 Hours After Administration,retinal blood vessels; 0.0000338% (w/v) (0.338 μg/mL),6.8%
same,Base-Corrected Retinal Vascular Diameter Change Rate (%) 48 Hours After Administration,retinal blood vessels; 0.0000338% (w/v) (0.338 μg/mL),1.7%
same,Base-Corrected Retinal Vascular Diameter Change Rate (%) 1 Hour After Administration,retinal blood vessels; 0.00338% (w/v) (33.8 μg/mL),58.4%
same,Base-Corrected Retinal Vascular Diameter Change Rate (%) 2 Hours After Administration,retinal blood vessels; 0.00338% (w/v) (33.8 μg/mL),81.7%
same,Base-Corrected Retinal Vascular Diameter Change Rate (%) 6 Hours After Administration,retinal blood vessels; 0.00338% (w/v) (33.8 μg/mL),73.8%
same,Base-Corrected Retinal Vascular Diameter Change Rate (%) 24 Hours After Administration,retinal blood vessels; 0.00338% (w/v) (33.8 μg/mL),16.0%
same,Base-Corrected Retinal Vascular Diameter Change Rate (%) 48 Hours After Administration,retinal blood vessels; 0.00338% (w/v) (33.8 μg/mL),0.0%
same,durability of retinal vasodilatory action compared with omidenepag (in words),"retinal blood vessels; both 65.0 μM, 24 hours after intravitreal administration, rabbits",amore durable action than omidenepag
same,retinal vasodilatory action (in words),"retinal blood vessels; intravitreal, rabbits",significantly strong retinal vasodilatory action

# From patent publication US10940144B2, “Drug containing pyridylaminoacetic acid compound” (priority 2017, dated 2021)
